Where a SMILES comes first, the peptide text is derived from it.
Assays:
[1] = target: T1, Erythropoietin receptor (Homo sapiens) (UniProt P19235); assay: Compound was evaluated for inhibition of [125I]EPO binding to Erythropoietin receptor (EBP) at a concentration of 50 uM
T1 sequence (whole entry): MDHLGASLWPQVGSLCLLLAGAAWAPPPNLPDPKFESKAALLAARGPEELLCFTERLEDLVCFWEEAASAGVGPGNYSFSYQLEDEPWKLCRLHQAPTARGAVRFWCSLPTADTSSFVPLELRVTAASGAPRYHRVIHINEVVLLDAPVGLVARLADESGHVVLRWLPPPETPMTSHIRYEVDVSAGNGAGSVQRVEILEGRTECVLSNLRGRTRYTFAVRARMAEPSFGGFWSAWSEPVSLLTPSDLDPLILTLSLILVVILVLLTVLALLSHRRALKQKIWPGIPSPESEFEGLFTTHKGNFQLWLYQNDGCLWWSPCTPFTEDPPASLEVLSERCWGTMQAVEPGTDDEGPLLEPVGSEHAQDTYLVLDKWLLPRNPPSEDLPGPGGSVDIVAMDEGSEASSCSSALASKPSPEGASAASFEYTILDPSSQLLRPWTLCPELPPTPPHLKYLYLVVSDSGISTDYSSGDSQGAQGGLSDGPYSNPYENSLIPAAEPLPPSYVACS

Erythropoietin receptor [2] = target: T2, Erythropoietin receptor (Homo sapiens, UniProt P19235); assay: Compound was evaluated for inhibition of [125I]-EPO binding to Erythropoietin receptor (EBP)
T2 sequence (P19235 whole entry): T1 sequence (whole entry)

Erythropoietin receptor [3] = target: T2, Erythropoietin receptor; assay: Compound was evaluated for inhibition of [125I]EPO binding to Erythropoietin receptor (EBP)
[4] = target: T1, Erythropoietin receptor (Homo sapiens); assay: Compound was evaluated for inhibition of [125I]EPO binding to EBP (erythropoietin receptor) at a concentration of 50 uM

SMILES | inhibition [1] [%] | IC50 (Erythropoietin receptor [2]) [µM] | IC50 (Erythropoietin receptor [3]) [µM] | inhibition [4] [%]
O=C(O)C[C@@H](C(=O)O)N(C/C=C/c1cccc(Oc2ccccc2)c1)C/C=C/c1cccc(Oc2ccccc2)c1 | 81 | – | – | –
COC(=O)[C@H](CCCCNC(N)=O)N(C/C=C/c1cccc(Oc2ccccc2)c1)C/C=C/c1cccc(Oc2ccccc2)c1 | 73 | 35 | – | –
O=C(O)CCC(=O)NCCCC[C@@H](C(=O)NCCCOCCOCCOCCCNC(=O)[C@H](CCCCNC(=O)CCC(=O)O)N(Cc1ccc(OCc2ccccc2)cc1)Cc1ccc(OCc2ccccc2)cc1)N(Cc1ccc(OCc2ccccc2)cc1)Cc1ccc(OCc2ccccc2)cc1 | 77 | 7 | – | –
COC(=O)[C@H](CCCCNC(=O)OC(C)(C)C)N(C/C=C/c1cccc(Oc2ccc(C(C)(C)C)cc2)c1)C/C=C/c1cccc(Oc2ccc(C(C)(C)C)cc2)c1 | 0 | – | – | –
COC(=O)[C@H](COC(C)(C)C)N(C/C=C/c1cccc(Oc2ccccc2)c1)C/C=C/c1cccc(Oc2ccccc2)c1 | 0 | – | – | –
CC(C)C[C@@H]1NC(=O)[C@H]([C@@H](C)O)NC(=O)[C@H](Cc2c[nH]c3ccccc23)NC(=O)[C@H](C(C)C)NC(=O)[C@@H](NC(=O)[C@H](CCCCN)NC(=O)[C@@H]2CCCN2C(=O)[C@H](CCC(N)=O)NC(=O)CNC(=O)CN)CSSC[C@@H](C(=O)N[C@@H](Cc2ccc(O)cc2)C(=O)N[C@@H](CO)C(=O)N[C@H](C(=O)NCC(=O)NCC(N)=O)[C@@H](C)O)NC(=O)[C@H](Cc2c[nH]cn2)NC(=O)[C@H](Cc2ccccc2)NC(=O)CNC(=O)[C@@H]2CCCN2C1=O (HELM PEPTIDE1{G.G.Q.P.K.C.V.W.T.L.P.G.F.H.C.Y.S.T.G.G.[am]}$PEPTIDE1,PEPTIDE1,6:R3-15:R3$$$V2.0) | – | – | 5 | –
O=C(O)[C@H](CO)NC/C=C/c1cccc(Oc2ccccc2)c1 | 23 | – | – | –
COC(=O)[C@H](CCC(=O)OC(C)(C)C)N(C/C=C/c1cccc(Oc2ccccc2)c1)C/C=C/c1cccc(Oc2ccccc2)c1 | 0 | – | – | –
COC(=O)[C@H](CO)N(C/C=C/c1cccc(Oc2ccccc2)c1)C/C=C/c1cccc(Oc2ccccc2)c1 | 57 | 145 | – | –
COC(=O)[C@H](CCCCNC(=O)OC(C)(C)C)NC/C=C/c1cccc(Oc2ccccc2)c1 | 20 | – | – | –
O=C(O)CCCC(=O)NCCCC[C@H](C(=O)NCCCOCCCCOCCCNC(=O)[C@H](CCCCNC(=O)CCCC(=O)O)N(Cc1ccc(OCc2ccccc2)cc1)Cc1ccc(OCc2ccccc2)cc1)N(Cc1ccc(OCc2ccccc2)cc1)Cc1ccc(OCc2ccccc2)cc1 | 82 | 4 | – | –
O=C(O)CC[C@H](NC/C=C/c1cccc(Oc2ccccc2)c1)C(=O)O | 0 | – | – | –
O=C(O)CCC(=O)NCCCC[C@H](C(=O)NCCOCCOCCNC(=O)[C@H](CCCCNC(=O)CCC(=O)O)N(Cc1ccc(OCc2ccccc2)cc1)Cc1ccc(OCc2ccccc2)cc1)N(Cc1ccc(OCc2ccccc2)cc1)Cc1ccc(OCc2ccccc2)cc1 | 93 | 1.5 | – | –
O=C(O)CCCC(=O)NCCCC[C@H](C(=O)NCCCCCCCCCCCCNC(=O)[C@H](CCCCNC(=O)CCCC(=O)O)N(Cc1ccc(OCc2ccccc2)cc1)Cc1ccc(OCc2ccccc2)cc1)N(Cc1ccc(OCc2ccccc2)cc1)Cc1ccc(OCc2ccccc2)cc1 | 55 | 85 | – | –
CC(C)(C)OC(=O)C[C@@H](C(=O)OC(C)(C)C)N(C/C=C/c1cccc(Oc2ccccc2)c1)C/C=C/c1cccc(Oc2ccccc2)c1 | 20 | – | – | –
O=C(O)CCC(=O)NCCCC[C@H](C(=O)NCCCOCCCCOCCCNC(=O)[C@H](CCCCNC(=O)CCC(=O)O)N(Cc1ccc(OCc2ccccc2)cc1)Cc1ccc(OCc2ccccc2)cc1)N(Cc1ccc(OCc2ccccc2)cc1)Cc1ccc(OCc2ccccc2)cc1 | 65 | 6 | – | –
O=C(O)CCCC(=O)NCCCC[C@@H](C(=O)NCCCOCCOCCOCCCNC(=O)[C@H](CCCCNC(=O)CCCC(=O)O)N(Cc1ccc(OCc2ccccc2)cc1)Cc1ccc(OCc2ccccc2)cc1)N(Cc1ccc(OCc2ccccc2)cc1)Cc1ccc(OCc2ccccc2)cc1 | 78 | 10 | – | –
COC(=O)[C@H](CCCCNC(=O)OC(C)(C)C)N(Cc1cccc(OCc2ccccc2)c1)Cc1cccc(OCc2ccccc2)c1 | 7 | – | – | –
COC(=O)[C@H](CCC(=O)OC(C)(C)C)NC/C=C/c1cccc(Oc2ccccc2)c1 | – | – | – | 6
O=C(O)CC[C@@H](C(=O)O)N(C/C=C/c1cccc(Oc2cccc(C(F)(F)F)c2)c1)C/C=C/c1cccc(Oc2cccc(C(F)(F)F)c2)c1 | 70 | 35 | – | –
O=C(O)CC[C@@H](C(=O)O)N(C/C=C/c1cccc(Oc2ccccc2)c1)C/C=C/c1cccc(Oc2ccccc2)c1 | 78 | 42 | – | –
COC(=O)[C@H](CCC(=O)O)NC/C=C/c1cccc(Oc2ccccc2)c1 | 6 | – | – | –

SMILES | inhibition [1] [%] | IC50 (Erythropoietin receptor [2]) [µM] | IC50 (Erythropoietin receptor [3]) [µM] | inhibition [4] [%]
COC(=O)[C@H](CO)NC/C=C/c1cccc(Oc2ccccc2)c1 | 28 | – | – | –
COC(=O)[C@H](CCCCNC(=O)OC(C)(C)C)N(C/C=C/c1cccc(Oc2ccccc2)c1)C/C=C/c1cccc(Oc2ccccc2)c1 | 0 | – | – | –
COC(=O)[C@H](CCCCN)N(C/C=C/c1cccc(Oc2ccc(C(C)(C)C)cc2)c1)C/C=C/c1cccc(Oc2ccc(C(C)(C)C)cc2)c1 | 18 | – | – | –
C[C@@H](C(=O)O)N(C/C=C/c1cccc(Oc2ccccc2)c1)C/C=C/c1cccc(Oc2ccccc2)c1 | 72 | 40 | – | –
COC(=O)[C@H](CCCCNS(C)(=O)=O)N(C/C=C/c1cccc(Oc2ccccc2)c1)C/C=C/c1cccc(Oc2ccccc2)c1 | 77 | 35 | – | –
COC(=O)[C@H](CCCCNC(=O)OC(C)(C)C)N(Cc1ccc(OCc2ccccc2)cc1)Cc1cccc([N+](=O)[O-])c1 | 24 | – | – | –
COC(=O)[C@H](CCCCN)N(Cc1ccc(OCc2ccccc2)cc1)Cc1cccc([N+](=O)[O-])c1 | 37 | – | – | –
COC(=O)[C@H](COC(C)(C)C)NC/C=C/c1cccc(Oc2ccccc2)c1 | 8 | – | – | –
O=C(O)CC[C@H](C(=O)NCCOCCOCCNC(=O)[C@H](CCC(=O)O)N(Cc1ccc(OCc2ccccc2)cc1)Cc1ccc(OCc2ccccc2)cc1)N(Cc1ccc(OCc2ccccc2)cc1)Cc1ccc(OCc2ccccc2)cc1 | 79 | – | – | –
NCCCC[C@H](C(=O)NCCOCCOCCNC(=O)[C@H](CCCCN)N(Cc1ccc(OCc2ccccc2)cc1)Cc1ccc(OCc2ccccc2)cc1)N(Cc1ccc(OCc2ccccc2)cc1)Cc1ccc(OCc2ccccc2)cc1 | 51 | 2 | – | –
COC(=O)[C@H](CCCCNC(=O)OC(C)(C)C)N(Cc1ccc(OCc2ccccc2)cc1)Cc1ccc(OCc2ccccc2)cc1 | 5 | – | – | –
COC(=O)[C@H](CCCCN)N(Cc1cccc(OCc2ccccc2)c1)Cc1cccc(OCc2ccccc2)c1 | 59 | 10 | – | –
COC(=O)[C@H](CCC(=O)O)N(C/C=C/c1cccc(Oc2ccc(Cl)c(Cl)c2)c1)C/C=C/c1cccc(Oc2ccc(Cl)c(Cl)c2)c1 | 32 | – | – | –
CC(C)(C)OC(=O)CC[C@H](NC/C=C/c1cccc(Oc2ccccc2)c1)C(=O)O | 0 | – | – | –
COC(=O)[C@H](CCCCN)N(Cc1ccc(OCc2ccccc2)cc1)Cc1ccc(OCc2ccccc2)cc1 | 54 | – | – | –
CC(C)(C)c1ccc(Oc2cccc(/C=C/CN(C/C=C/c3cccc(Oc4ccc(C(C)(C)C)cc4)c3)[C@@H](CCC(=O)O)C(=O)O)c2)cc1 | 78 | 30 | – | –
O=C(O)CCCC(=O)NCCCC[C@H](C(=O)NCCOCCOCCNC(=O)[C@H](CCCCNC(=O)CCCC(=O)O)N(Cc1ccc(OCc2ccccc2)cc1)Cc1ccc(OCc2ccccc2)cc1)N(Cc1ccc(OCc2ccccc2)cc1)Cc1ccc(OCc2ccccc2)cc1 | 88 | 1.5 | – | –
O=C(O)CCC(=O)NCCCC[C@H](C(=O)NCCCCCCCCCCCCNC(=O)[C@H](CCCCNC(=O)CCC(=O)O)N(Cc1ccc(OCc2ccccc2)cc1)Cc1ccc(OCc2ccccc2)cc1)N(Cc1ccc(OCc2ccccc2)cc1)Cc1ccc(OCc2ccccc2)cc1 | 56 | 100 | – | –
O=C(O)C[C@H](C(=O)NCCCOCCCCOCCCNC(=O)[C@H](CC(=O)O)N(Cc1ccc(OCc2ccccc2)cc1)Cc1ccc(OCc2ccccc2)cc1)N(Cc1ccc(OCc2ccccc2)cc1)Cc1ccc(OCc2ccccc2)cc1 | 75 | 18 | – | –
O=C(O)CN(C/C=C/c1cccc(Oc2ccccc2)c1)C/C=C/c1cccc(Oc2ccccc2)c1 | 45 | – | – | –
O=C(O)C[C@@H](C(=O)NCCCOCCOCCOCCCNC(=O)[C@H](CC(=O)O)N(Cc1ccc(OCc2ccccc2)cc1)Cc1ccc(OCc2ccccc2)cc1)N(Cc1ccc(OCc2ccccc2)cc1)Cc1ccc(OCc2ccccc2)cc1 | 66 | 28 | – | –
